# Patent publication US20250339547A1, “MET BCL-XL INHIBITOR ANTIBODY-DRUG CONJUGATES AND METHODS OF USE THEREOF” (Novartis AG, priority 2022, published 2025)
# How the values were obtained:
# Format in all cases: cell-based
# LOUNH-91 = assay: In vitro activity in LOUNH-91 cell line (CTG 120h), Example 6; settings: LOU-NH91, 120 h, LOUNH91, CTG 120 h
# Method: (§1) Cell lines were cultured in the media described above at 37° C. in a humidified atmosphere containing 5% CO2. Cells were seeded in 96 well clear bottom plates (96 well clear-bottom, white, Corning reference 3903) and exposed to the mAbs or ADCs for 120h (serially diluted; 9 concentrations each, triplicates). Effects of mAbs or ADCs on cell viability were assessed after 5 days of incubation at 37° C./5% CO2 by quantification of cellular ATP levels using CellTiter-Glo reagent (Promega Ref: G7571) at 75 μL reagent/well. All the conditions were tested in triplicates. Luminescence was quantified on a multipurpose plate reader. IC50s were calculated using standard four-parametric curve fitting. IC50 is defined as the compound concentration at which the CTG signal is reduced to 50% of that measured for the control. Two independent experiments were performed (N1 and N2). IC50 data of each experiment and the arithmetic mean is shown in Table 14 for all the antibodies and ADCs tested.
# SNU-5 = assay: In vitro activity in SNU-5 cell line (CTG 120h), Example 6; settings: Homo sapiens, SNU-5, 120 h, SNU-5, CTG 120 h
# Method: as §1
# H1650 cells [1] = assay: In vitro activity in H1650 cell line (3D, CTG 120h), Example 12; settings: Homo sapiens, NCI-H1650, 120 h, H1650 3D
# Method: (§2) H1650 cells were cultivated in RPMI supplemented with 10% heat inactivated fetal bovine serum, penicillin (100 IU/ml), streptomycin (100 μg/ml) and L-glutamine (2 mM). Cells were cultured at 37° C. in a humidified atmosphere containing 5% CO2. Cells were seeded in 96 microwell round bottom plates (96 microwell low attachment plates, Costar reference 7007; 75 μL/well of 125000 cells/mL) and exposed to the mAbs or ADCs for 120h (serially diluted; 9 concentrations each, duplicates). Effects of mAbs or ADCs on cell viability were assessed after 5 days of incubation at 37° C./5% CO2 by quantification of cellular ATP levels using CellTiter-Glo reagent (Promega Ref: G7571) at 75 μL reagent/well. All the conditions were tested in duplicates. Luminescence was quantified on a multipurpose plate reader. IC50s were calculated using standard four-parametric curve fitting. IC50 is defined as the compound concentration at which the CTG signal is reduced to 50% of that measured for the control. Two independent experiments were performed (N1 and N2).
# (§3) Plating Conditions: EBC-1: 75 μL/well of 60000 cells/mL for 120h in 96-well plate SNU-5: 75 μL/well of 60000 cells/mL for 120h in 96-well plate H1650 (ATOC): 75 μL/well of 125000 cells/mL for 120h in 96 microwell round bottom plates
# EBC-1 = assay: In vitro activity in EBC-1 cell line (CTG 120h), Example 12; settings: Homo sapiens, EBC-1, 120 h, EBC1, CTG 120 h
# Method: as §1, with “EBC-1 and SNU-5 cell lines” for “Cell lines”, “CO2. The cells” for “CO2. Cells”, “N2).” for “N2). IC50 data of each experiment and the arithmetic mean is shown in Table 14 for all the antibodies and ADCs tested.”
# as §3
# H1650 cells [2] = assay: In vitro activity in H1650 cell line (3D, CTG 120h), Example 6; settings: Homo sapiens, NCI-H1650, 120 h, H1650 3D
# Method: as §2, with “CellTiterGlo” for “CellTiter-Glo reagent (Promega Ref: G7571)”, “N2). IC50 data of each experiment and the arithmetic mean is shown in Table 14 for all the antibodies and ADCs tested. NT=not tested; ND=not determined.” for “N2).”
# [3] = test system: HCC78 lung cancer cell line; assay: HCC78 viability, single agents or 1:1 combination with paclitaxel (CTG 120h), Example 13; settings: Homo sapiens, HCC78, 120 h
# Method: HCC78 lung cancer cell line was cultured in the media described above at 37° C. in a humidified atmosphere containing 5% CO2. […] When in 1:1 combination, both paclitaxel and the mAb or ADC were serially diluted (9 concentrations each, triplicates). Effect on cell viability was assessed after 5 days of incubation at 37° C./5% CO2 by quantification of cellular ATP levels using CellTiter-Glo reagent (Promega Ref: G7571) at 75 μL reagent/well. All the conditions were tested in triplicates. Luminescence was quantified on a multipurpose plate reader. IC50s were calculated using standard four-parametric curve fitting. […] Two independent experiments were performed (N1 and N2).
IC50 (LOUNH-91; mean) [nM],IC50 (LOUNH-91; n = 1) [nM],IC50 (LOUNH-91; n = 2) [nM],IC50 (SNU-5; mean) [nM],IC50 (SNU-5; n = 1) [nM],IC50 (SNU-5; n = 2) [nM],IC50 (H1650 cells [1]; N1) [nM],IC50 (H1650 cells [1]; N2) [nM],IC50 (H1650 cells [1]; mean) [nM],IC50 (EBC-1; Mean) [nM],IC50 (EBC-1; N1) [nM],IC50 (EBC-1; N2) [nM],IC50 (H1650 cells [2]; mean) [nM],IC50 (H1650 cells [2]; n = 1) [nM],IC50 (H1650 cells [2]; n = 2) [nM],IC50 ([3]; Mean) [nM],IC50 ([3]; N1) [nM],IC50 ([3]; N2) [nM],Compound
7.07,6.43,7.71,10700,10600,10800,8.28,5.9,7.09,12.6,12.8,12.4,1.57,1.47,1.66,,,,"Cc1c(Nc2nc3ccccc3s2)nnc2c1CCCN2c1ccc(-c2cnn(C[C@]34C[C@]5(C)C[C@](C)(C3)C[C@@](OCCNCCCO)(C5)C4)c2C)c(C(=O)O)n1 [P25, 6-[3-(1,3-benzothiazol-2-ylamino)-4-methyl-6,7-dihydro-5H-pyrido[2,3-c]pyridazin-8-yl]-3-[1-[[3-[2-(3-hydroxypropylamino)ethoxy]-5,7-dimethyl-1-adamantyl]methyl]-5-methyl-pyrazol-4-yl]pyridine-2-carboxylic acid]"
,,,,,,,,,,,,,,,6.44,6.04,6.84,"CC(=O)O[C@H]1C(=O)[C@@]2(C)[C@H]([C@H](OC(=O)c3ccccc3)[C@]3(O)C[C@H](OC(=O)[C@H](O)[C@@H](NC(=O)c4ccccc4)c4ccccc4)C(C)=C1C3(C)C)[C@]1(OC(C)=O)CO[C@@H]1C[C@@H]2O [Paclitaxel, paclitaxel]"
